From patent publication US11634425B2, “Pharmaceutical compounds” (priority 2019, dated 2023)
Like-named read-outs stand apart in the source and are kept apart here.

Key:
[1] = system: RSV A2; assay: RSV plaque reduction assay; assay type: cell-based, respiratory syncytial virus (RSV); settings: mean of at least two experiments
Method in brief: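 RSV A2 at 100 PFU/well was premixed with eight compound dilutions and added to confluent Hep-G2 monolayers for 2 h at 37 °C. Cells were then kept 2 days under a DMEM/2% FBS/0.8% CMC overlay containing compound. Immunostained plaques were counted relative to virus controls, and EC50 came from 4-parameter fits, averaged over at least two experiments.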

[2] = system: Hep-G2 cells; assay: Cell cytotoxicity (CC50); assay type: cell-based; settings: mean of at least two experiments
Method in brief: (§1)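 Values are means of ≥2 independent runs, rounded to whole units, from 4-parameter variable-slope curve fits. Toxicity measured in Hep-G2 cells run alongside RSV plaque-reduction assays.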

[3] = in vitro; assay type: in vitro ADME; settings: 1 μM compound, 0.5 mg/mL protein; for half-life at 1 μM: microsomes, pH 7.4, read-out: Liver Microsomal Stability t1/2
Method in brief: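 Pooled liver microsomes (0.5 mg/mL protein) in 0.1 M phosphate pH 7.4 with 1 μM compound and 1 mM NADPH at 37° C., sampled at 0–45 min; minus-NADPH control at 45 min. Acetonitrile quench, LC-MS/MS; t1/2 and CLint from ln peak-area ratio vs time slope.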

[4] = in vivo; assay type: in vivo, rat (Sprague Dawley); settings: male SD rat; for Vd / clearance / Cmax / half-life / AUC(0-t): Sprague Dawley, in vivo; for Cmax / C 8 h: IV 1 mg/kg / PO 10 mg/kg study; for AUC(0-t): read-out: PO AUClast
Method: The pharmacokinetics of compounds were studied in vivo in rats at doses of 1 mg/kg (IV) and 10 mg/kg (PO).
Male rats [Sprague Dawley (SD)] surgically prepared with a jugular vein cannula were treated with experimental compounds via intravenous administration (IV; n=3; 1 mg/kg) or oral administration (PO; n=3; 10 mg/kg). Compounds were formulated as a solution in 40:60 dimethylacetamide:saline (IV administration) and a solution of 10% DMSO, 20% cremaphor in water (70%) (PO administration). […] Serial blood samples were collected via the cannula at 0.02, 0.08, 0.25, 0.5, 1, 2, 4, 6, 8 and 24 h post IV dosing of compound, and at 0.08, 0.25, 0.5, 1, 2, 4, 6, 8 and 24 h post oral dosing of compound, and plasma was prepared by centrifugation and stored immediately at −80° C. Samples were subsequently thawed, prepared for analysis by protein precipitation with acetonitrile, and analysed by tandem LCMS using electrospray ionisation using a matrix-matched calibration curve. PK parameters were calculated from the resulting data.

[5] = Cell cytotoxicity (CC50); assay type: cell-based; settings: human; mean of at least two experiments
Method in brief: as §1

[6] = in vitro; assay type: in vitro ADME; settings: hepatocytes, 3 μM compound, read-out: Liver Hepatocyte Stability t1/2
Method: Compounds were subjected to the following assays to investigate liver microsomal stability and hepatocyte stability.
Hepatocyte Incubation: Experimental Procedure
Cryopreserved pooled hepatocytes were purchased from a reputable commercial supplier and stored in liquid nitrogen prior to use. Williams E media supplemented with 2 mM L-glutamine and 25 mM HEPES and test compound (final substrate concentration 3 μM; final DMSO concentration 0.25%) are pre-incubated at 37° C. prior to the addition of a suspension of cryopreserved hepatocytes (final cell density 0.5×10^6 viable cells/mL in Williams E media supplemented with 2 mM L-glutamine and 25 mM HEPES) to initiate the reaction. The final incubation volume is 500 μL. Two control compounds were included with each species, alongside appropriate vehicle control. The reactions are stopped by transferring 50 μL of incubate to 100 μL acetonitrile containing internal standard at the appropriate time points. Samples were removed at 6 time points (0, 5, 15, 30, 45 and 60 min) over the course of a 60 min experiment. The termination plates are centrifuged at 2500 rpm at 4° C. for 30 min to precipitate the protein. Following protein precipitation, the sample supernatants were combined in cassettes of up to 4 compounds and analysed using generic LC-MS/MS conditions. From a plot of ln peak area ratio (compound peak area/internal standard peak area) against time, the gradient of the line is determined. Subsequently, half-life (t1/2) and intrinsic clearance (CLint) were calculated.

[7] = human respiratory syncytial virus, HepG2, Hep-G2 cells
[8] = IV 1 mg/kg, read-out: IV t1/2 (converted)
[9] = PO 10 mg/kg, read-out: PO t1/2 (converted)

Molecule | EC50 ([1]; Hep-G2 cells) [nM] | CC50 [2] [nM] | Liver Microsomal Stability t1/2 ([3]; dog) [h] | Liver Microsomal Stability t1/2 ([3]; human) [h] | Liver Microsomal Stability t1/2 ([3]; rat) [h] | EC50 [1, 7] [nM] | CC50 [5] [nM] | half-life at 3 μM ([6]; dog) [h] | half-life at 3 μM ([6]; human) [h] | half-life at 3 μM ([6]; rat) [h] | half-life at 1 μM ([3]; dog) [h] | half-life at 1 μM ([3]; human) [h] | half-life at 1 μM ([3]; rat) [h] | further results
2-[2-Methyl-6-(propan-2-ylamino)pyridin-3-yl]-N-[(3S)-9-fluoro-2-oxo-5-phenyl-1,3-dihydro-1,4-benzodiazepin-3-yl]pyrazolo[1,5-a]pyrimidine-3-carboxamide [Example 61] | 25 | > 25000 | 0.392 | 2.2 | 1.07 | – | – | – | – | – | – | – | – | –
2-[2-Methyl-6-(propan-2-ylamino)pyridin-3-yl]-N-[(3S)-2-oxo-5-phenyl-1,3-dihydro-1,4-benzodiazepin-3-yl]pyrazolo[1,5-a]pyrimidine-3-carboxamide [Example 60] | 41 | > 25000 | – | – | – | – | – | – | – | – | – | – | – | –
CCc1ccc(-c2nn3cccnc3c2C(=O)N[C@H]2N=C(c3ccccc3)c3cccc(F)c3NC2=O)c(C)n1 [Example 57, 2-(6-Ethyl-2-methylpyridin-3-yl)-N-[(3S)-9-fluoro-2-oxo-5-phenyl-2,3-dihydro-1H-1,4-benzodiazepin-3-yl]pyrazolo[1,5-a]pyrimidine-3-carboxamide] | – | – | – | – | – | 56 | > 25000 | 43.3 | > 3.1 | 0.785 | 1.38 | 1.68 | 0.715 | Vd ([4]; IV 1 mg/kg): 0.6 L/kg; clearance ([4]; IV 1 mg/kg): 19.2 mL/min/kg; Cmax [4]: 912 ng/mL; half-life [4, 8]: 1.4 h; AUC(0-t) ([4]; PO 10 mg/kg): 3660 ng·h/mL; half-life [4, 9]: 2.6 h; C 8 h [4]: 142 ng/mL; F ([4]; IV 1 mg/kg, PO 10 mg/kg): 48%
N-[(3S)-9-Fluoro-2-oxo-5-phenyl-1,3-dihydro-1,4-benzodiazepin-3-yl]-2-(2-fluorophenyl)-7-methylpyrazolo[1,5-a]pyrimidine-3-carboxamide [Example 38] | 27 | > 25000 | 2.75 | > 2.33 | 1.98 | – | – | – | – | – | – | – | – | –
O=C(N[C@H]1N=C(c2ccccc2)c2cccc(F)c2NC1=O)c1c(-c2cncc(Cl)c2)nn2cccnc12 [Example 28, 2-(5-Chloropyridin-3-yl)-N-[(3S)-9-fluoro-2-oxo-5-phenyl-1,3-dihydro-1,4-benzodiazepin-3-yl]pyrazolo[1,5-a]pyrimidine-3-carboxamide] | – | – | – | – | – | 41 | > 25000 | 4 | 3.23 | > 3.1 | 4.28 | 14.2 | 44.7 | Vd ([4]; IV 1 mg/kg): 1.8 L/kg; clearance ([4]; IV 1 mg/kg): 7.8 mL/min/kg; Cmax [4]: 785 ng/mL; half-life [4, 8]: 3.1 h; AUC(0-t) ([4]; PO 10 mg/kg): 11100 ng·h/mL; half-life [4, 9]: 5.4 h; C 8 h [4]: 629 ng/mL; F ([4]; IV 1 mg/kg, PO 10 mg/kg): 54%
Cc1ccc2nc(-c3ccccc3)c(C(=O)N[C@H]3N=C(c4ccccc4)c4cccc(F)c4NC3=O)n2n1 [Example 93, N-[(3S)-9-Fluoro-2-oxo-5-phenyl-1,3-dihydro-1,4-benzodiazepin-3-yl]-6-methyl-2-phenylimidazo[1,2-b]pyridazine-3-carboxamide] | – | – | – | – | – | 33 | > 25000 | 7.42 | 4.9 | 1.19 | 23.7 | 34.8 | 0.685 | –
Cc1ccc2nc(-c3ccccc3F)c(C(=O)N[C@H]3N=C(c4ccccc4)c4cccc(F)c4NC3=O)n2n1 [Example 19, N-[(3S)-9-fluoro-2-oxo-5-phenyl-1,3-dihydro-1,4-benzodiazepin-3-yl]-2-(2-fluorophenyl)-6-methylimidazo[1,2-b]pyridazine-3-carboxamide] | – | – | – | – | – | 31 | > 25000 | > 3.1 | 2.02 | 1.6 | > 2.33 | > 2.33 | 0.477 | –
N-[(3S)-9-Fluoro-2-oxo-5-phenyl-l,3-dihydro-1,4-benzodiazepin-3-yl]-2-phenylpyrazolo[1,5-a]pyrimidine-3-carboxamide [Example 17] | 90 | > 25000 | – | – | – | – | – | – | – | – | – | – | – | –
O=C(N[C@H]1N=C(c2ccccc2)c2cccc(F)c2NC1=O)c1c(-c2ccc3[nH]ncc3c2)nc2cccnn12 [Example 126, N-[(3S)-9-fluoro-2-oxo-5-phenyl-1,3-dihydro-1,4-benzodiazepin-3-yl]-2-(1H-indazol-5-yl)imidazo[1,2-b]pyridazine-3-carboxamide] | 56 | > 25000 | 0.563 | 5.2 | 6.88 | – | – | – | – | – | – | – | – | –
2-[4-Methyl-6-(propan-2-ylamino)pyridin-3-yl]-N-[(3S)-9-fluoro-2-oxo-5-phenyl-1,3-dihydro-1,4-benzodiazepin-3-yl]pyrazolo[1,5-a]pyrimidine-3-carboxamide [Example 62] | 74 | > 25000 | 0.828 | > 2.33 | 1.19 | – | – | – | – | – | – | – | – | –
Cc1ccc2nc(-c3ccc(N4CCOCC4)nc3)c(C(=O)N[C@H]3N=C(c4ccccc4)c4cccc(F)c4NC3=O)n2n1 [Example 105, N-[(3S)-9-fluoro-2-oxo-5-phenyl-1,3-dihydro-1,4-benzodiazepin-3-yl]-6-methyl-2-(6-morpholin-4-ylpyridin-3-yl)imidazo[1,2-b]pyridazine-3-carboxamide] | 38 | > 25000 | – | – | – | – | – | – | – | – | – | – | – | –
CN1CCc2ccc(-c3nn4cccnc4c3C(=O)N[C@H]3N=C(c4ccccc4)c4ccccc4NC3=O)cc21 [Example 11, 2-(1-Methyl-2,3-dihydroindol-6-yl)-N-[(3S)-2-oxo-5-phenyl-1,3-dihydro-1,4-benzodiazepin-3-yl]pyrazolo[1,5-a]pyrimidine-3-carboxamide] | 89 | > 25000 | – | – | – | – | – | – | – | – | – | – | – | –
